# Measurements from paper PMC7500638, “Dissecting the antibacterial activity of oxadiazolone-core derivatives against Mycobacterium abscessus” (PLoS ONE, 2020).
# Molecular target: T1, Ag85CMabs (Ag85C, MAB_0175) (Mycobacteroides abscessus, UniProt B1MEL1)
# T1 construct: C-terminal 6His-tag; pMyC vector, expressed in M. smegmatis delta-groEL1
# Test: competitive TAMRA-FP activity-based probe labelling, in-gel fluorescence
# Type: binding
# Conditions: covalent; 14 uM enzyme, 1 h preincubation, 10 mM Tris pH 8, 150 mM NaCl, 0.1% Triton X-100; catalytic Ser124
# T1 sequence (B1MEL1 entry or part of it): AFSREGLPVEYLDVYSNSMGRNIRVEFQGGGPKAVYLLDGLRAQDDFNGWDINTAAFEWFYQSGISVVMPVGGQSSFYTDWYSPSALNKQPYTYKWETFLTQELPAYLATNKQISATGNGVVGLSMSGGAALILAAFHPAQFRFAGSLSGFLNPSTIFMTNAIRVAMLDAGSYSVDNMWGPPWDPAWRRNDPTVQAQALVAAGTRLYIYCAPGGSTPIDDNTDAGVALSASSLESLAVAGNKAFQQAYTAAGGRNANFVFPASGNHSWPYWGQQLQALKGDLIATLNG
structure (smiles),measurement,value
CC(C)COc1nn(-c2ccc(Oc3ccccc3)cc2)c(=O)o1 [iBpPPOX],% loss of TAMRA-FP labelling at E/I 1:75,> 90%
